Test results taken from patent US11040028B2, “Penicinotam derivative, preparation method and use thereof” (OCEAN UNIVERSITY OF CHINA, priority 2017, dated 2021).

Columns and labels:
Type in all cases: cell-based
[1] = system: human embryonic lung fibroblast IMR-90; experiment: Anti-fibrosis activity test: inhibition of proliferation of human embryonic lung fibroblast IMR-90 (CCK-8); conditions: human embryonic lung fibroblast IMR-90, CCK-8, 48 hours
Method in brief: (§1)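 A CCK-8 proliferation assay was run: cells at 2×10^4 cells/mL, adherent for 24 h, then incubated 48 h at 37° C with compound dilutions. A450 was recorded 2 h after CCK-8 addition and converted to percent inhibition versus blank for IC50 determination.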

[2] = system: human fibrosarcoma cells HT-1080; experiment: Anti-fibrosis activity test: inhibition of proliferation of human fibrosarcoma cells HT-1080 (CCK-8); conditions: Homo sapiens, HT-1080, 48 h, human fibrosarcoma cells HT-1080, CCK-8, 48 hours
Method in brief: as §1

[3] = system: BHK-21 cells; experiment: Anti-fibrosis activity test: inhibition of BHK-21 cell proliferation (CCK-8); conditions: Mesocricetus auratus, BHK-21, 48 h, CCK-8, 48 hours after administration
Method in brief: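 Proliferation inhibition was read as CCK-8 absorbance at 450 nm (2-hour development) relative to untreated blank, with IC50 fitted from the curve. Before that, adhered cells (2×10^4 cells/mL, 24 hours) had 48 hours' treatment at several concentrations, in triplicate, at 37° C/5% CO2; pirfenidone was the reference.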

[4] = system: mouse macrophages (RAW264.7); experiment: Lipopolysaccharide-induced NO secretion in macrophages (Griess); conditions: Mus musculus, RAW264.7, 24 h, RAW264.7, LPS 1 μg/ml, a/b isomers given as first/second symbol, read-out: IC50 (μM), inhibition of lipopolysaccharide-induced NO secretion in macrophages
Method in brief: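 Absorbance at 548 nm after Griess reagent addition to culture supernatant gave NO content; inhibition rate was derived relative to blank control. Cells were mouse RAW264.7 macrophages exposed to compounds and 1 μg/ml LPS for 24 hours.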

[5] = system: human lung fibroblasts HFL1; experiment: Anti-fibrosis activity test: inhibition of proliferation of human lung fibroblasts HFL1 (CCK-8); conditions: Homo sapiens, HFL1, 48 h, human lung fibroblasts HFL1, CCK-8, 48 hours
Method in brief: as §1

[6] = system: human dermal fibroblasts CCC-ESF-1; experiment: Anti-fibrosis activity test: inhibition of proliferation of human dermal fibroblasts CCC-ESF-1 (CCK-8); conditions: Fibroblast; human dermal fibroblasts CCC-ESF-1, CCK-8, 48 hours
Method in brief: as §1

[7] = system: NF-κB; experiment: Immunological activity test: inhibition of NF-κB activity; conditions: initial concentration of 30 μM; a/b isomers given as first/second symbol; read-out: IC50 (μM), inhibitory activity against NF-κB
Method in brief: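 Compounds were first screened for inhibition of NF-κB activity at 30 μM, with parthenolide as the positive control. IC50 values were then determined for the compounds by further analysis of the assay data.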

[8] = system: cardiac fibroblast RAT-iCell-C002; experiment: Anti-fibrosis activity test: inhibition of proliferation of cardiac fibroblast RAT-iCell-C002 (CCK-8); conditions: Cardiac fibroblast, 48 h, cardiac fibroblast RAT-iCell-C002, CCK-8, 48 hours
Method in brief: as §1

[9] = system: human hepatic stellate cells LX-2; experiment: Anti-fibrosis activity test: inhibition of proliferation of human hepatic stellate cells LX-2 (CCK-8); conditions: Homo sapiens, 48 h, human hepatic stellate cells LX-2, CCK-8, 48 hours
Method in brief: as §1

Compound	IC50 [1] [mM]	IC50 [2] [mM]	IC50 [3] [mM]	IC50 [4] [µM]	IC50 [5] [mM]	IC50 [6] [mM]	IC50 [7] [µM]	IC50 [8] [mM]	IC50 [9] [mM]
N#Cc1ccccc1Cn1c2c(c(=O)c3ccccc31)C(=O)n1cccc1-2 [Compound 577a, 2-((9,10-Dioxo-9H-pyrrolizino[1,2-b]quinolin-4(10H)-yl)methyl)benzonitrile]	0.05 to 5	0.05 to 5	0.05 to 5	1 to 10	0.05 to 5	0.05 to 5	1 to 10	0.05 to 5	< 0.05
N#Cc1ccccc1COc1c2c(nc3ccccc13)-c1cccn1C2=O [Compound 577b, 2-(((10-oxo-10H-pyrrolizino[1,2-b]quinolin-9-yl)oxy)methyl)benzonitrile]	0.05 to 5	0.05 to 5	0.05 to 5	1 to 10	0.05 to 5	0.05 to 5	1 to 10	0.05 to 5	0.05 to 5
O=C1c2c(n(Cc3ccc(F)cc3F)c3ccccc3c2=O)-c2cccn21 [Compound 578a, 4-(2,4-Difluorobenzyl)-9H-pyrrolizino[1,2-b]quinoline-9,10(4H)-dione]	0.05 to 5	< 0.05	0.05 to 5	1 to 10	0.05 to 5	0.05 to 5	1 to 10	0.05 to 5	0.05 to 5
O=C1c2c(nc3ccccc3c2OCc2ccc(F)cc2F)-c2cccn21 [Compound 578b, 9-((2,4-difluorobenzyl)oxy)-10H-pyrrolizino[1,2-b]quinolin-10-one]	0.05 to 5	0.05 to 5	0.05 to 5	1 to 10	0.05 to 5	0.05 to 5	1 to 10	0.05 to 5	0.05 to 5
O=C1c2c(n(Cc3cc(F)cc(F)c3)c3ccccc3c2=O)-c2cccn21 [Compound 579a, 4-(3,5-Difluorobenzyl)-9H-pyrrolizino[1,2-b]quinoline-9,10(4H)-dione]	0.05 to 5	0.05 to 5	0.05 to 5	1 to 10	0.05 to 5	0.05 to 5	0.1 to 1	0.05 to 5	0.05 to 5
O=C1c2c(nc3ccccc3c2OCc2cc(F)cc(F)c2)-c2cccn21 [Compound 579b, 9-((3,5-difluorobenzyl)oxy)-10H-pyrrolizino[1,2-b]quinolin-10-one]	0.05 to 5	0.05 to 5	0.05 to 5	1 to 10	0.05 to 5	0.05 to 5	0.1 to 1	0.05 to 5	0.05 to 5
COc1cc(Cn2c3c(c(=O)c4ccccc42)C(=O)n2cccc2-3)cc(OC)c1 [Compound 580a, 4-(3,5-Dimethoxybenzyl)-9H-pyrrolizino[1,2-b]quinoline-9,10(4H)-dione]	0.05 to 5	0.05 to 5	0.05 to 5	0.1 to 1	0.05 to 5	0.05 to 5	1 to 10	0.05 to 5	0.05 to 5
COc1cc(COc2c3c(nc4ccccc24)-c2cccn2C3=O)cc(OC)c1 [Compound 580b, 9-((3,5-dimethoxybenzyl)oxy)-10H-pyrrolizino[1,2-b]quinolin-10-one]	0.05 to 5	0.05 to 5	0.05 to 5	1 to 10	0.05 to 5	0.05 to 5	1 to 10	0.05 to 5	0.05 to 5
O=C1c2c(n(Cc3ccccc3C(F)(F)F)c3ccccc3c2=O)-c2cccn21 [Compound 581a, 4-(2-(Trifluoromethyl)benzyl)-9H-pyrrolizino[1,2-b]quinoline-9,10(4H)-dione]	0.05 to 5	0.05 to 5	0.05 to 5	0.1 to 1	0.05 to 5	0.05 to 5	1 to 10	0.05 to 5	0.05 to 5
O=C1c2c(nc3ccccc3c2OCc2ccccc2C(F)(F)F)-c2cccn21 [Compound 581b, 9-((2-(trifluoromethyl)benzyl)oxy)-10H-pyrrolizino[1,2-b]quinolin-10-one]	0.05 to 5	0.05 to 5	0.05 to 5	1 to 10	0.05 to 5	0.05 to 5	1 to 10	0.05 to 5	0.05 to 5
O=C1c2c(n(Cc3cccc(Cl)c3F)c3ccccc3c2=O)-c2cccn21 [Compound 582a, 4-(3-Chloro-2-fluorobenzyl)-9H-pyrrolizino[1,2-b]quinoline-9,10(4H)-dione]	0.05 to 5	0.05 to 5	0.05 to 5	1 to 10	0.05 to 5	0.05 to 5	1 to 10	0.05 to 5	0.05 to 5
O=C1c2c(nc3ccccc3c2OCc2cccc(Cl)c2F)-c2cccn21 [Compound 582b, 9-((3-chloro-2-fluorobenzyl)oxy)-10H-pyrrolizino[1,2-b]quinolin-10-one]	0.05 to 5	0.05 to 5	0.05 to 5	1 to 10	0.05 to 5	0.05 to 5	1 to 10	0.05 to 5	0.05 to 5
O=C1c2c(n(Cc3cccc([N+](=O)[O-])c3)c3ccccc3c2=O)-c2cccn21 [Compound 583a, 4-(3-Nitrobenzyl)-9H-pyrrolizino[1,2-b]quinoline-9,10(4H)-dione]	0.05 to 5	0.05 to 5	0.05 to 5	1 to 10	0.05 to 5	0.05 to 5	1 to 10	0.05 to 5	0.05 to 5
O=C1c2c(nc3ccccc3c2OCc2cccc([N+](=O)[O-])c2)-c2cccn21 [Compound 583b, 9-((3-nitrobenzyl)oxy)-10H-pyrrolizino[1,2-b]quinolin-10-one]	0.05 to 5	0.05 to 5	0.05 to 5	1 to 10	0.05 to 5	0.05 to 5	1 to 10	0.05 to 5	0.05 to 5
O=C1c2c(n(Cc3ccc(F)c(F)c3F)c3ccccc3c2=O)-c2cccn21 [Compound 584a, 4-(2,3,4-Trifluorobenzyl)-9H-pyrrolizino[1,2-b]quinoline-9,10(4H)-dione]	0.05 to 5	< 0.05	< 0.05	1 to 10	0.05 to 5	0.05 to 5	0.1 to 1	0.05 to 5	0.05 to 5
O=C1c2c(nc3ccccc3c2OCc2ccc(F)c(F)c2F)-c2cccn21 [Compound 584b, 9-((2,3,4-trifluorobenzyl)oxy)-10H-pyrrolizino[1,2-b]quinolin-10-one]	5 to 20	< 0.05	0.05 to 5	1 to 10	0.05 to 5	0.05 to 5	0.1 to 1	0.05 to 5	0.05 to 5
O=C1c2c(nc3ccccc3c2OCc2cc(F)c(F)cc2F)-c2cccn21 [Compound 585b, 9-((2,4,5-trifluorobenzyl)oxy)-10H-pyrrolizino[1,2-b]quinolin-10-one]	0.05 to 5	0.05 to 5	0.05 to 5	1 to 10	0.05 to 5	0.05 to 5	1 to 10	0.05 to 5	0.05 to 5
O=C1c2c(n(Cc3c(F)c(F)c(F)c(F)c3F)c3ccccc3c2=O)-c2cccn21 [Compound 586a, 4-((Perfluorophenyl)methyl)-9H-pyrrolizino[1,2-b]quinoline-9,10(4H)-dione]	0.05 to 5	0.05 to 5	0.05 to 5	0.1 to 1	0.05 to 5	0.05 to 5	1 to 10	0.05 to 5	0.05 to 5
O=C1c2c(nc3ccccc3c2OCc2c(F)c(F)c(F)c(F)c2F)-c2cccn21 [Compound 586b, 9-((perfluorophenyl)methoxy)-10H-pyrrolizino[1,2-b]quinolin-10-one]	0.05 to 5	0.05 to 5	0.05 to 5	1 to 10	0.05 to 5	0.05 to 5	1 to 10	0.05 to 5	0.05 to 5
